Laboratory results reported in US9550775B2, “Substituted triazolopyridines and methods of use thereof” (GENENTECH, INC., priority 2013, dated 2017).

How the values were obtained:
hNav1.7 = hNav1.7 (Homo sapiens (Human), UniProt Q15858); assay: Tritiated sulfonamide competitive binding to membranes from cells expressing hNav1.7 and the β1 subunit; settings: 100 pM [3H]compound, 18 h, room temperature; inactivated state of NaV1.7 membrane binding; read-out: NaV1.7 Ligand Binding Assay (IC50);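 note: displacement of the tritiated ligand from recombinant cell membranes, read by liquid scintillation counting of filter-bound radioactivity, nonspecific binding defined with 1 µM unlabelled compound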
[1] = target: human NaV1.7 (with β1 subunit) stably expressed in HEK-293 cells (Homo sapiens (Human), UniProt Q15858); assay: Patch voltage clamp electrophysiology assay (EP), inactivated-state block; type: cell-based; settings: membrane potential held at -60 mV; read-out: affinity for the inactivated state of NaV1.7
Procedure: Patch voltage clamp electrophysiology allows for the direct measurement and quantification of block of voltage-gated sodium channels (NaV's), and allows the determination of the time- and voltage-dependence of block which has been interpreted as differential binding to the resting, open, and inactivated states of the sodium channel (Hille, B., Journal of General Physiology (1977), 69: 497-515).
Currents were recorded at 40 kHz sampling frequency, filtered at […], and stored using a Digidata-1322A analogue/digital interface with the pClamp software (Axon Instruments). Series resistance compensation was applied (60-80%). […] All statistics in this study are given as mean±SD.
The membrane potential was maintained at a voltage where inactivation of the channel is complete (which was −60 mV for both NaV1.7 and NaV1.5). The voltage is then stepped back to a very negative (Vhold=[…]) voltage for 20 ms and then a test pulse is applied to quantify the compound block. The 20 ms brief repolarization was long enough for compound-free channels to completely recover from fast inactivation, but the compound-bound channels recovered more slowly such that negligible recovery could occur during this interval. The percent decrease in sodium current following wash-on of compound was taken as the percent block of sodium channels.

Chain of human NaV1.7 (with β1 subunit) stably expressed in HEK-293 cells (Q15858 other isoform, or with tags, fused parts or gaps): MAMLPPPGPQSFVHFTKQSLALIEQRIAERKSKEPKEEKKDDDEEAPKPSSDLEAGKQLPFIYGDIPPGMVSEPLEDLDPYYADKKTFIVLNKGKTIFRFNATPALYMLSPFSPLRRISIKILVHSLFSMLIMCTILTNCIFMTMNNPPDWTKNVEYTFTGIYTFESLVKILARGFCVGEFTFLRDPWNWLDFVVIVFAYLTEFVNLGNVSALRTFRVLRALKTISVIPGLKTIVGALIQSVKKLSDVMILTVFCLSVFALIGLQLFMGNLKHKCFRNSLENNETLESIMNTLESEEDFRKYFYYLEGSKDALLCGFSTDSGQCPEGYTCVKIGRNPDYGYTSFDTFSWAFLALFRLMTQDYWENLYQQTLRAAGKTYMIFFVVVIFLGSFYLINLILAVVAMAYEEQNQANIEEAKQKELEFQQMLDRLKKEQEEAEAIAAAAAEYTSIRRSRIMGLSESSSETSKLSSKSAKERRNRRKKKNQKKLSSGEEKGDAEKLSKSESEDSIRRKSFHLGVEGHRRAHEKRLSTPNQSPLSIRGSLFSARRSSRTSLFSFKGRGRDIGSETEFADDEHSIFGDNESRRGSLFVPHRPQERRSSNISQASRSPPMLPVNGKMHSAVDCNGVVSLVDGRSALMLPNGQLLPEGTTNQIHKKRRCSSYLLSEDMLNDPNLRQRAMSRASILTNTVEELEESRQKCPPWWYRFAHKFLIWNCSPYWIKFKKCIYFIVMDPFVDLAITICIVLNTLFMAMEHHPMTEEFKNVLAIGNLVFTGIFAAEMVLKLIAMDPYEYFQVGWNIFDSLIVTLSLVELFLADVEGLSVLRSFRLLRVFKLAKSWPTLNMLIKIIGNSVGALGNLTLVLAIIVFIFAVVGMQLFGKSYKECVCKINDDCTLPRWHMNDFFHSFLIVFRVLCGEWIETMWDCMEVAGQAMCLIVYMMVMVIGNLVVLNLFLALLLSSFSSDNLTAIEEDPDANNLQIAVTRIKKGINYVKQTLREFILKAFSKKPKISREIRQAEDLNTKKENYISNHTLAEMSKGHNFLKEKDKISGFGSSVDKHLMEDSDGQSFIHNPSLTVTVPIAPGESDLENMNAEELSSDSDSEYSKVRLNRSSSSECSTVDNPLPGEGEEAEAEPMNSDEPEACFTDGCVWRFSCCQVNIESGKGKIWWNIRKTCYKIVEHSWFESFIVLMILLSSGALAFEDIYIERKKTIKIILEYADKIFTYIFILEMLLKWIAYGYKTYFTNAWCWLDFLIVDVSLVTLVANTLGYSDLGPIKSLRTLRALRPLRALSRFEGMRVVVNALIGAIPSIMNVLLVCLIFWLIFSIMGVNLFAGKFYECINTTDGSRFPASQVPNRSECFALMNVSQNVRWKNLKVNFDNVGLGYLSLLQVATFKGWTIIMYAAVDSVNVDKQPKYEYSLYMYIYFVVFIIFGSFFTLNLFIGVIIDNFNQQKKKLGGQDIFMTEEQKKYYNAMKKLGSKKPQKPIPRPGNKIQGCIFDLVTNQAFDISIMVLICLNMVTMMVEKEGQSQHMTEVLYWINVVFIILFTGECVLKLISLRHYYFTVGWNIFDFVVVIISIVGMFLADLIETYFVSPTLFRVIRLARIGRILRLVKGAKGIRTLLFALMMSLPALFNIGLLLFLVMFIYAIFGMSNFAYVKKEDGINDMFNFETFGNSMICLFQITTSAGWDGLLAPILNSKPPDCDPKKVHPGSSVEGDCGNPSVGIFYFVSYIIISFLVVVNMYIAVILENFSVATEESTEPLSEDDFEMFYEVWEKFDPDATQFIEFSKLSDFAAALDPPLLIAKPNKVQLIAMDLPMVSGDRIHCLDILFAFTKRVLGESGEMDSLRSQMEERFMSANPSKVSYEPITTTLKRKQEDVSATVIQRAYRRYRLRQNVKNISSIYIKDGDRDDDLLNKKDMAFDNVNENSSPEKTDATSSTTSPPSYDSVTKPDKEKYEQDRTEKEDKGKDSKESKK
Chain of human NaV1.7 (with β1 subunit) stably expressed in HEK-293 cells (Q07699 19-218 partner): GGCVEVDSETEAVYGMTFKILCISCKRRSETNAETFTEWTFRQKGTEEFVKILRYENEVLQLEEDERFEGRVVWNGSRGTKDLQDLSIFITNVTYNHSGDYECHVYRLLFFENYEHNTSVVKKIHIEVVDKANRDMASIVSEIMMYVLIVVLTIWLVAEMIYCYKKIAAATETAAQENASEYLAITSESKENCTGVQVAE
Chain of hNav1.7 (Q15858 other isoform, or with tags, fused parts or gaps): as the sequence (Q15858 other isoform, or with tags, fused parts or gaps) above
Chain of hNav1.7 (Q07699 19-218 partner): as the sequence (Q07699 19-218 partner) above

- IC50 (hNav1.7): 2.6 nM
- IC50 [1]: 2.6 nM
Structure (SMILES): CS(=O)(=O)Nc1nnc2cc(COc3ccc(Cl)c(Cl)c3)c(Br)cn12 [Example 55, N-(6-bromo-7-((3,4-dichlorophenoxy)methyl)-[1,2,4]-triazolo[4,3-a]pyridin-3-yl)-methanesulfonamide]
